Like-named read-outs stand apart in the source and are kept apart here.
Experiments:
Test in all cases: Glasshouse assay for herbicidal activity (pre- and post-emergence), percentage phytotoxicity
Type in all cases: in vivo
[1] = test system: Echinochloa crus-galli (ECHCG); details: Echinochloa crus-galli
In short: (§1)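 Damage was rated visually as percent phytotoxicity, 100% meaning total kill, 20 days after pre-emergence application (made one day post-sowing) or 15 days after post-emergence application (made about 12 days post-sowing). Plants were grown under 16 h light, 65% humidity, warm species 24/18° C, cool 20/16° C.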

[2] = test system: Alopecurus myosuroides (ALOMY); details: Alopecurus myosuroides
In short: as §1

[3] = test system: Lolium perenne (LOLPE); details: Lolium perenne
In short: as §1

[4] = test system: Avena fatua (AVEFA); details: Avena fatua
In short: as §1

[5] = post-emergence, 360 h, Rate 250 g/ha, post-emergence, assessed visually 15 DAA, 100%=total damage, 0%=no damage, read-out: Post-emergence herbicidal activity (percentage phytotoxicity) ECHCG POST
[6] = pre-emergence, 480 h, Rate 250 g/ha, pre-emergence, assessed visually 20 DAA, 100%=total damage, 0%=no damage, read-out: Pre-emergence herbicidal activity (percentage phytotoxicity) ECHCG PRE
[7] = post-emergence, 360 h, Rate 250 g/ha, post-emergence, assessed visually 15 DAA, 100%=total damage, 0%=no damage, read-out: Post-emergence herbicidal activity (percentage phytotoxicity) ALOMY POST
[8] = pre-emergence, 480 h, Rate 250 g/ha, pre-emergence, assessed visually 20 DAA, 100%=total damage, 0%=no damage, read-out: Pre-emergence herbicidal activity (percentage phytotoxicity) ALOMY PRE
[9] = post-emergence, 360 h, Rate 250 g/ha, post-emergence, assessed visually 15 DAA, 100%=total damage, 0%=no damage, read-out: Post-emergence herbicidal activity (percentage phytotoxicity) LOLPE POST
[10] = pre-emergence, 480 h, Rate 250 g/ha, pre-emergence, assessed visually 20 DAA, 100%=total damage, 0%=no damage, read-out: Pre-emergence herbicidal activity (percentage phytotoxicity) LOLPE PRE
[11] = post-emergence, 360 h, Rate 250 g/ha, post-emergence, assessed visually 15 DAA, 100%=total damage, 0%=no damage, read-out: Post-emergence herbicidal activity (percentage phytotoxicity) AVEFA POST
[12] = pre-emergence, 480 h, Rate 250 g/ha, pre-emergence, assessed visually 20 DAA, 100%=total damage, 0%=no damage, read-out: Pre-emergence herbicidal activity (percentage phytotoxicity) AVEFA PRE
[13] = post-emergence, 360 h, Rate 250 g/ha, post-emergence, visual assessment 15 DAA, 100%=total damage, 0%=no damage, read-out: Post-emergence herbicidal activity (percentage phytotoxicity) ECHCG POST
[14] = pre-emergence, 480 h, Rate 250 g/ha, pre-emergence, visual assessment 20 DAA, 100%=total damage, 0%=no damage, read-out: Pre-emergence herbicidal activity (percentage phytotoxicity) ECHCG PRE
[15] = post-emergence, 360 h, Rate 250 g/ha, post-emergence, visual assessment 15 DAA, 100%=total damage, 0%=no damage, read-out: Post-emergence herbicidal activity (percentage phytotoxicity) ALOMY POST
[16] = pre-emergence, 480 h, Rate 250 g/ha, pre-emergence, visual assessment 20 DAA, 100%=total damage, 0%=no damage, read-out: Pre-emergence herbicidal activity (percentage phytotoxicity) ALOMY PRE
[17] = post-emergence, 360 h, Rate 250 g/ha, post-emergence, visual assessment 15 DAA, 100%=total damage, 0%=no damage, read-out: Post-emergence herbicidal activity (percentage phytotoxicity) LOLPE POST
[18] = pre-emergence, 480 h, Rate 250 g/ha, pre-emergence, visual assessment 20 DAA, 100%=total damage, 0%=no damage, read-out: Pre-emergence herbicidal activity (percentage phytotoxicity) LOLPE PRE
[19] = post-emergence, 360 h, Rate 250 g/ha, post-emergence, visual assessment 15 DAA, 100%=total damage, 0%=no damage, read-out: Post-emergence herbicidal activity (percentage phytotoxicity) AVEFA POST
[20] = pre-emergence, 480 h, Rate 250 g/ha, pre-emergence, visual assessment 20 DAA, 100%=total damage, 0%=no damage, read-out: Pre-emergence herbicidal activity (percentage phytotoxicity) AVEFA PRE
[21] = post-emergence, 360 h, POST-emergence, rate 250 g/ha, visual score 15 DAA (100%=total damage, 0%=no damage), read-out: Post-emergence herbicidal activity (percentage phytotoxicity) ECHCG POST
[22] = pre-emergence, 480 h, PRE-emergence, rate 250 g/ha, visual score 20 DAA (100%=total damage, 0%=no damage), read-out: Pre-emergence herbicidal activity (percentage phytotoxicity) ECHCG PRE
[23] = post-emergence, 360 h, POST-emergence, rate 250 g/ha, visual score 15 DAA (100%=total damage, 0%=no damage), read-out: Post-emergence herbicidal activity (percentage phytotoxicity) ALOMY POST
[24] = pre-emergence, 480 h, PRE-emergence, rate 250 g/ha, visual score 20 DAA (100%=total damage, 0%=no damage), read-out: Pre-emergence herbicidal activity (percentage phytotoxicity) ALOMY PRE
[25] = post-emergence, 360 h, POST-emergence, rate 250 g/ha, visual score 15 DAA (100%=total damage, 0%=no damage), read-out: Post-emergence herbicidal activity (percentage phytotoxicity) LOLPE POST
[26] = pre-emergence, 480 h, PRE-emergence, rate 250 g/ha, visual score 20 DAA (100%=total damage, 0%=no damage), read-out: Pre-emergence herbicidal activity (percentage phytotoxicity) LOLPE PRE
[27] = post-emergence, 360 h, POST-emergence, rate 250 g/ha, visual score 15 DAA (100%=total damage, 0%=no damage), read-out: Post-emergence herbicidal activity (percentage phytotoxicity) AVEFA POST
[28] = pre-emergence, 480 h, PRE-emergence, rate 250 g/ha, visual score 20 DAA (100%=total damage, 0%=no damage), read-out: Pre-emergence herbicidal activity (percentage phytotoxicity) AVEFA PRE

Structure (SMILES) | pest or weed control at 250 g/ha [1, 5] [%] | pest or weed control at 250 g/ha [1, 6] [%] | pest or weed control at 250 g/ha [2, 8] [%] | pest or weed control at 250 g/ha [3, 10] [%] | pest or weed control at 250 g/ha [4, 12] [%] | pest or weed control at 250 g/ha [1, 13] [%] | pest or weed control at 250 g/ha [1, 14] [%] | pest or weed control at 250 g/ha [2, 15] [%] | pest or weed control at 250 g/ha [2, 16] [%] | pest or weed control at 250 g/ha [3, 17] [%] | pest or weed control at 250 g/ha [3, 18] [%] | pest or weed control at 250 g/ha [4, 19] [%] | pest or weed control at 250 g/ha [4, 20] [%] | other results
Cc1cc(-c2ncc(Cl)cc2F)cc(C)c1C1C(=O)CC(CC(=O)NCc2ccc(C(F)(F)F)nc2)C1=O (stereo not drawn) [Compound A115] | 100 | 90 | 90 | 90 | 90 |  |  |  |  |  |  |  |  | pest or weed control at 250 g/ha [2, 7]: 100%; pest or weed control at 250 g/ha [3, 9]: 100%; pest or weed control at 250 g/ha [4, 11]: 100%
CCN(C)C(=O)CC1CC(=O)C(c2c(C)cc(-c3ccc(Cl)cn3)cc2C)C1=O (stereo not drawn) [Compound B367] |  |  |  |  |  | 100 | 100 | 90 | 90 | 100 | 100 | 100 | 100 | 
CC#Cc1cc(C)c(C2C(=O)CC(CC(=O)NC(C)(C)CC)C2=O)c(CC)c1 (stereo not drawn) [Compound A50] | 100 | 90 | 100 | 100 | 100 |  |  |  |  |  |  |  |  | pest or weed control at 250 g/ha [2, 7]: 100%; pest or weed control at 250 g/ha [3, 9]: 100%; pest or weed control at 250 g/ha [4, 11]: 100%
CC#Cc1cc(C)c(C2C(=O)CC(CC(=O)NC3CC3)C2=O)c(CC)c1 (stereo not drawn) [Compound A66] | 100 | 100 | 100 | 100 | 100 |  |  |  |  |  |  |  |  | pest or weed control at 250 g/ha [2, 7]: 90%; pest or weed control at 250 g/ha [3, 9]: 100%; pest or weed control at 250 g/ha [4, 11]: 100%
Cc1cc(-c2ncc(Cl)cn2)cc(C)c1C1=C(OC(=O)N2CCCC2)C(CC(=O)NC(C)(C)C)CC1=O (stereo not drawn) [Compound P7] |  |  |  |  |  | 80 | 50 | 70 | 0 | 40 | 30 | 60 | 10 | 
C=CCCNC(=O)CC1CC(=O)C(c2c(C)cc(C)cc2C)C1=O (stereo not drawn) [Compound A94] | 80 | 60 | 90 | 90 | 20 |  |  |  |  |  |  |  |  | 
Cc1cc(C)c(C2C(=O)CC(CC(=O)NC(C)C3CC3)C2=O)c(C)c1 (stereo not drawn) [Compound B31] |  |  |  |  |  |  |  |  |  |  |  |  |  | pest or weed control at 250 g/ha ([1]; post-emergence, 360 h, 250 g/ha, post-emergence, 15 DAA, visual assessment (100%=total damage, 0%=no damage), read-out: Post-emergence herbicidal activity (percentage phytotoxicity) ECHCG POST): 80%; pest or weed control at 250 g/ha ([1]; pre-emergence, 480 h, 250 g/ha, pre-emergence, 20 DAA, visual assessment (100%=total damage, 0%=no damage), read-out: Pre-emergence herbicidal activity (percentage phytotoxicity) ECHCG PRE): 90%; pest or weed control at 250 g/ha ([2]; post-emergence, 360 h, 250 g/ha, post-emergence, 15 DAA, visual assessment (100%=total damage, 0%=no damage), read-out: Post-emergence herbicidal activity (percentage phytotoxicity) ALOMY POST): 80%; pest or weed control at 250 g/ha ([2]; pre-emergence, 480 h, 250 g/ha, pre-emergence, 20 DAA, visual assessment (100%=total damage, 0%=no damage), read-out: Pre-emergence herbicidal activity (percentage phytotoxicity) ALOMY PRE): 100%; pest or weed control at 250 g/ha ([3]; post-emergence, 360 h, 250 g/ha, post-emergence, 15 DAA, visual assessment (100%=total damage, 0%=no damage), read-out: Post-emergence herbicidal activity (percentage phytotoxicity) LOLPE POST): 80%; pest or weed control at 250 g/ha ([3]; pre-emergence, 480 h, 250 g/ha, pre-emergence, 20 DAA, visual assessment (100%=total damage, 0%=no damage), read-out: Pre-emergence herbicidal activity (percentage phytotoxicity) LOLPE PRE): 90%; pest or weed control at 250 g/ha ([4]; post-emergence, 360 h, 250 g/ha, post-emergence, 15 DAA, visual assessment (100%=total damage, 0%=no damage), read-out: Post-emergence herbicidal activity (percentage phytotoxicity) AVEFA POST): 80%; pest or weed control at 250 g/ha ([4]; pre-emergence, 480 h, 250 g/ha, pre-emergence, 20 DAA, visual assessment (100%=total damage, 0%=no damage), read-out: Pre-emergence herbicidal activity (percentage phytotoxicity) AVEFA PRE): 70%
COCC(C)(C)NC(=O)CC1CC(=O)C(c2c(C)cc(-c3ccc(F)cn3)cc2C)C1=O (stereo not drawn) [Compound B389] |  |  |  |  |  | 100 | 100 | 100 | 90 | 90 | 100 | 100 | 90 | 
COc1ccc(CNC(=O)CC2CC(=O)C(c3c(C)cc(-c4ncc(F)cn4)cc3C)C2=O)cc1 (stereo not drawn) [Compound B271] |  |  |  |  |  |  |  |  |  |  |  |  |  | pest or weed control at 250 g/ha [1, 21]: 100%; pest or weed control at 250 g/ha [1, 22]: 100%; pest or weed control at 250 g/ha [2, 23]: 100%; pest or weed control at 250 g/ha [2, 24]: 80%; pest or weed control at 250 g/ha [3, 25]: 90%; pest or weed control at 250 g/ha [3, 26]: 80%; pest or weed control at 250 g/ha [4, 27]: 100%; pest or weed control at 250 g/ha [4, 28]: 80%
Cc1cc(OCC(F)(F)F)cc(C)c1C1C(=O)CC(CC(=O)NCc2cccc(F)c2)C1=O (stereo not drawn) [Compound B205] |  |  |  |  |  |  |  |  |  |  |  |  |  | pest or weed control at 250 g/ha [1, 21]: 90%; pest or weed control at 250 g/ha [1, 22]: 90%; pest or weed control at 250 g/ha [2, 23]: 100%; pest or weed control at 250 g/ha [2, 24]: 100%; pest or weed control at 250 g/ha [3, 25]: 90%; pest or weed control at 250 g/ha [3, 26]: 90%; pest or weed control at 250 g/ha [4, 27]: 90%; pest or weed control at 250 g/ha [4, 28]: 80%
Cc1ccc(CNC(=O)CC2CC(=O)C(c3c(C)cc(-c4ccc(F)cn4)cc3C)C2=O)cc1 (stereo not drawn) [Compound B398] |  |  |  |  |  | 100 | 70 | 80 | 50 | 90 | 70 | 80 | 40 | 
COc1ccc(CNC(=O)CC2CC(=O)C(c3c(C)cc(-c4ccc(Cl)cn4)cc3C)C2=O)cc1 (stereo not drawn) [Compound B380] |  |  |  |  |  | 100 | 90 | 70 | 70 | 90 | 80 | 90 | 80 | 
